One assay addresses T1, NTRK1 (Homo sapiens, UniProt P04629).
T1 construct: purchased Carna Biosciences 08-186
As to the kind of experiment: NTRK kinase enzyme inhibitory activity evaluation, NTRK1. The class given is biochemical. As to conditions: FL-Peptide 27 substrate, ATP Km=33 μM, three separate measurements. As for the experimental part: (§1) NTRK1, NTRK2, and NTRK3 kinase solutions were each prepared. […]; Next, a substrate reaction solution was prepared.
(§2) Subsequently, a reaction stop solution was prepared. The composition is as follows: 100 mM HEPES (pH 7.4), 0.015% Brij-35, 40 mM EDTA, and 0.1% Coating Reagent 3 (Caliper Life Sciences #760050).
(§3) The NTRK1, NTRK2, and NTRK3 kinase solutions were each added at a concentration of 19 μL/well to a 96-well plate. Each compound for evaluation dissolved in DMSO to achieve each final concentration was added to the plate, mixed using a plate mixer, and then preincubated at room temperature for 20 minutes. […] Then, the reaction stop solution was added thereto at a concentration of 40 μL/well. Substrate phosphorylation intensity was measured using EZ Reader II (Caliper Life Sciences). IC50 values were calculated by curve fitting using Microsoft Excel 2010 on the basis of data obtained from three separate measurements.

Assay [1] has as its system HCC78 cells having ROS1 fusion gene. As to the kind of experiment: HCC78 cell growth assay (CellTiter-Glo). As to conditions: Homo sapiens, 72 hours culture, 2% FBS medium, luminescence, four separate measurements, read-out: growth inhibitory effect on HCC78 cells having ROS1 fusion gene IC50. Format: cell-based. Background: ATP-based viability assays read luminescence as a measure of living cells.

A further assay concerns the target T2, NTRK2 (Homo sapiens, UniProt Q16620).
T2 construct: purchased Carna Biosciences 08-187
As to the kind of experiment: NTRK kinase enzyme inhibitory activity evaluation, NTRK2. The class given is biochemical. As to conditions: FL-Peptide 27 substrate, ATP Km=63 μM, three separate measurements. As for the experimental part: as §1, §2, §3

Another assay deals with T3, NTRK3 (Homo sapiens, UniProt Q16288).
T3 construct: purchased Carna Biosciences 08-197
T3 sequence (Q16288 32-839): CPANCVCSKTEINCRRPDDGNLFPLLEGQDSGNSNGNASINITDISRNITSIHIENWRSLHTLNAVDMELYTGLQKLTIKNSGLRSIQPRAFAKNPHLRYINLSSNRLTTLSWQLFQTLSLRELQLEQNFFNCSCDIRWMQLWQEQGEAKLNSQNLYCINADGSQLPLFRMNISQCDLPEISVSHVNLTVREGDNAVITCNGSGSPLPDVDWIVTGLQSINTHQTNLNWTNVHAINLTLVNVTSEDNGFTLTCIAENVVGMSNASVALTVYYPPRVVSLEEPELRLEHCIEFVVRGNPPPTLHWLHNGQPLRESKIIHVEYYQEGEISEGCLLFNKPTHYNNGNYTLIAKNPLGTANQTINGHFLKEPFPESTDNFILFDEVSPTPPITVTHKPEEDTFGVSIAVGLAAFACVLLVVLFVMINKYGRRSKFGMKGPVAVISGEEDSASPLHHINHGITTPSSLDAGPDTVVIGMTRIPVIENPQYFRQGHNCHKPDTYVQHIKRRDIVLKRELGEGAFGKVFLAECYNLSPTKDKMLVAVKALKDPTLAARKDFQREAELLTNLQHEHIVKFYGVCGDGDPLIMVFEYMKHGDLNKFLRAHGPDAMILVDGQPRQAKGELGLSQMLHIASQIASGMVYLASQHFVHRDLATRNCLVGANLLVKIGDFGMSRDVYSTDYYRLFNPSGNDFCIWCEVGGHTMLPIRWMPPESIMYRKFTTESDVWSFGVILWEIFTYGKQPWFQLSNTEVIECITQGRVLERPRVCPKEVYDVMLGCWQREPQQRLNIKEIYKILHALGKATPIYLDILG
As to the kind of experiment: NTRK kinase enzyme inhibitory activity evaluation, NTRK3. The class given is biochemical. As to conditions: FL-Peptide 27 substrate, ATP Km=32 μM, three separate measurements. The method, then:
as §1, §2, §3

Assay [2] concerns the target T4, ROS1 (Homo sapiens, UniProt P08922).
T4 construct: purchased Carna Biosciences 08-163
Put plainly: ROS1 kinase inhibitory activity evaluation (mobility shift, EZ Reader II). The note with it: ROS1 25 pg/μL, FL-Peptide 22 substrate, three separate measurements. The class given is biochemical. The method, then: Next, a substrate reaction solution was prepared. […] Then, the reaction stop solution was added thereto at a concentration of 40 μL/well. Substrate phosphorylation intensity was measured using EZ Reader II (Caliper Life Sciences).

In assay [3] the target is T4, ROS1. Put plainly: ROS1 autophosphorylation inhibitory activity evaluation (ADP-Glo). The class given is biochemical. The note with it: 200 nM inactive ROS1, ATP 1 mM, 25° C. 1.5 hours, ADP generated, four separate measurements. In a few lines: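 ROS1 autophosphorylation ran with 1 mM final ATP in 50 mM HEPES pH 7.5, 10 mM MgCl2, 0.01% Brij-58, 2.5 mM DTT for 1.5 h at 25° C. ADP generated was read by ADP-Glo luminescence. IC50 values were obtained by curve fitting.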
In general terms: ADP-Glo turns the ADP formed in a reaction into a luminescent signal.

Like-named read-outs stand apart in the source and are kept apart here.

T1 sequence (P04629 33-796): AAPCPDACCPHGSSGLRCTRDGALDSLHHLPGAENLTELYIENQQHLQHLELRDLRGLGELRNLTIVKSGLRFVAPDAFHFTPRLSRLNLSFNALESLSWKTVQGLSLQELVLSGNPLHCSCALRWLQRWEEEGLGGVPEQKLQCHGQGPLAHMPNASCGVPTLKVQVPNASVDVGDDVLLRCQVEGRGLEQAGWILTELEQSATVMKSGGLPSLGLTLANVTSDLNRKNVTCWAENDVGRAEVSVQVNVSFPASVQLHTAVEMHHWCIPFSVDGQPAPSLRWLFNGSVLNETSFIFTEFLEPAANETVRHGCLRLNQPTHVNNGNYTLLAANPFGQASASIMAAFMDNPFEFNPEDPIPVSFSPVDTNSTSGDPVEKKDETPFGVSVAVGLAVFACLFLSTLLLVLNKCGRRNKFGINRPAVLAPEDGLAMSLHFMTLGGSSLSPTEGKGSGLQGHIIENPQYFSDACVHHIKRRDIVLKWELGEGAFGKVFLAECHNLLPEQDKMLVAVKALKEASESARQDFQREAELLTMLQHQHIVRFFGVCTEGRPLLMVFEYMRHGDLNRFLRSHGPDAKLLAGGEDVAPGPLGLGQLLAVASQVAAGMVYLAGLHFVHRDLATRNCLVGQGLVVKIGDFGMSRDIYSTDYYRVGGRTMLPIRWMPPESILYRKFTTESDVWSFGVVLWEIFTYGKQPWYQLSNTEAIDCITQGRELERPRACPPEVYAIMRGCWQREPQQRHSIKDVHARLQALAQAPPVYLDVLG
T4 sequence (P08922 28-2347): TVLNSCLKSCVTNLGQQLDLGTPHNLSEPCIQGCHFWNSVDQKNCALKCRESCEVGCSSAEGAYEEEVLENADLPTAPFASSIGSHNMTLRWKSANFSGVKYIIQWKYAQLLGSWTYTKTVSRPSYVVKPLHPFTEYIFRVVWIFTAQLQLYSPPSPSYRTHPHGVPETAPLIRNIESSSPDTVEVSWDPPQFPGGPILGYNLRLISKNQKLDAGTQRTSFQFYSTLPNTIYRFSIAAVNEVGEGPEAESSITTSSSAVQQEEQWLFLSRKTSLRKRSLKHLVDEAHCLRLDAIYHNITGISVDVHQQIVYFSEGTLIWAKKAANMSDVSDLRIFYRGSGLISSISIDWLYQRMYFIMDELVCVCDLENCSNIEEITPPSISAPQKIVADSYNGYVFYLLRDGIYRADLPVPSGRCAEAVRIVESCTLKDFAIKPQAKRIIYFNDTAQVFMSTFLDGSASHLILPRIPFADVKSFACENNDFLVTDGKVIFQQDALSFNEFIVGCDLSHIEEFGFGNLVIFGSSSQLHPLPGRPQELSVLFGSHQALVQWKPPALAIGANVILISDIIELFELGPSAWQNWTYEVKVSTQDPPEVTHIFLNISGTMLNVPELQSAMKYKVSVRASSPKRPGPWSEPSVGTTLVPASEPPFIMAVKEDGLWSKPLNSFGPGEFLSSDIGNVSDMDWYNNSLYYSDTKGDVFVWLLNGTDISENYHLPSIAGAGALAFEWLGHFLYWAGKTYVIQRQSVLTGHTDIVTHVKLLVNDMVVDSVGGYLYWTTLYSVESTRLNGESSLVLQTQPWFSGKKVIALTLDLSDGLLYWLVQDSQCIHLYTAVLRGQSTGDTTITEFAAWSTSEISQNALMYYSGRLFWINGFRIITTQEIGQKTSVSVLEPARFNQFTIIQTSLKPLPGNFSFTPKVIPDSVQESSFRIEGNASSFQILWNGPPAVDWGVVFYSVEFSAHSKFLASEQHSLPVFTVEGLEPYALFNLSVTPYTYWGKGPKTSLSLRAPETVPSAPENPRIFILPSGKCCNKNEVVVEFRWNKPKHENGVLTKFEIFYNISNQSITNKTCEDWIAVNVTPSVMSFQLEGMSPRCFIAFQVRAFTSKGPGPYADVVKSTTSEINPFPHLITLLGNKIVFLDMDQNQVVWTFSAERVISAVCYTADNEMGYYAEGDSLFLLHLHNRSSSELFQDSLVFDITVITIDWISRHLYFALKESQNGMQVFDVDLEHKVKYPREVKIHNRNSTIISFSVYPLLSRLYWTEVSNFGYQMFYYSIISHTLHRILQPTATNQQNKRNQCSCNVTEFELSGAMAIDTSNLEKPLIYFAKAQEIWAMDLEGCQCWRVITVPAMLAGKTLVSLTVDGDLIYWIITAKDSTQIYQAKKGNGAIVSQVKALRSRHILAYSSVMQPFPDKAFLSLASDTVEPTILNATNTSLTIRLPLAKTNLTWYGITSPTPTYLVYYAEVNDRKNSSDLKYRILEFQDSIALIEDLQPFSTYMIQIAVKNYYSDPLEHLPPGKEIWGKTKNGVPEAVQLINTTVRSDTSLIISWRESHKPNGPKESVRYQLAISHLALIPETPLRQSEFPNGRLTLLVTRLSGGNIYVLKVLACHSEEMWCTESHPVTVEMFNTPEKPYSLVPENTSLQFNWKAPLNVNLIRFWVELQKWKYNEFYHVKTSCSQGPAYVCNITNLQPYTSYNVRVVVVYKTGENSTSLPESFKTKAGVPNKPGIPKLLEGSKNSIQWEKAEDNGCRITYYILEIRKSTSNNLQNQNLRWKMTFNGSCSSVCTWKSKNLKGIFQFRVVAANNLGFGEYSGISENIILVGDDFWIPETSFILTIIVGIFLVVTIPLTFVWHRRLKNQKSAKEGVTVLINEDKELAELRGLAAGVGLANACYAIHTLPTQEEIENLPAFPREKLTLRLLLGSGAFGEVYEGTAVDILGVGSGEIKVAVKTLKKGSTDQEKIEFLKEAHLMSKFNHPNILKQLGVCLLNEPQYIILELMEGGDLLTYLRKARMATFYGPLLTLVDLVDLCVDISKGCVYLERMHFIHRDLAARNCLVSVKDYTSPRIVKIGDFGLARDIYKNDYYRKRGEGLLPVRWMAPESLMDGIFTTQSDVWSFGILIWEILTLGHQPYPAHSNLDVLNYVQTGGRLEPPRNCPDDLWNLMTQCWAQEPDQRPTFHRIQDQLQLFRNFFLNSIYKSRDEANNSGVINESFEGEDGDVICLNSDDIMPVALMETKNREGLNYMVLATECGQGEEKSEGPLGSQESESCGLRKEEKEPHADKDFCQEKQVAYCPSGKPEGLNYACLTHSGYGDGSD
T2 sequence (Q16620 32-822): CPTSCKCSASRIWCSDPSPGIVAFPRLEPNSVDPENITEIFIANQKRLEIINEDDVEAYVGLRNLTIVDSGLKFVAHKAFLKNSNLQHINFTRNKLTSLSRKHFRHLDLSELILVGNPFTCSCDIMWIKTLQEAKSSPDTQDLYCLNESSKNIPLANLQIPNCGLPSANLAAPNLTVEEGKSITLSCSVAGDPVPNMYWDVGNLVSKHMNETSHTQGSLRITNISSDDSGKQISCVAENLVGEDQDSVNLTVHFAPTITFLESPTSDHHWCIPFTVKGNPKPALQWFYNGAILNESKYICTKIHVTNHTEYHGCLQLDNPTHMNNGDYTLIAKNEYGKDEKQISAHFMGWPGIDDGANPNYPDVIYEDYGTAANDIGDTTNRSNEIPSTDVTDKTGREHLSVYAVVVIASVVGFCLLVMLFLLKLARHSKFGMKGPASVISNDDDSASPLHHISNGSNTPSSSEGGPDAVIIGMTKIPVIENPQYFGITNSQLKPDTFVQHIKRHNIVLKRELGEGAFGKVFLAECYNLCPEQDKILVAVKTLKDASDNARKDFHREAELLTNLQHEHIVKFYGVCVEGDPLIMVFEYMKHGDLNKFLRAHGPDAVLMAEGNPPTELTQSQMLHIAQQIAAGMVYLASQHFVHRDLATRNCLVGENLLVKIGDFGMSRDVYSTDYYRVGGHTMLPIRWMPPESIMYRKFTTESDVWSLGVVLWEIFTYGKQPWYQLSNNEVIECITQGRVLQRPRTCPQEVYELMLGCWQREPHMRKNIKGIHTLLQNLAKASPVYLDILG

What is called IC50 is the concentration needed to halve the response being measured. For `C[C@@H](N)COc1ccc(-c2cnc3ccc(N[C@H](C)c4cccc(F)c4)nn23)cc1` [Example 21, 3-[4-[(2R)-2-Aminopropoxy]phenyl]-N-[(1R)-1-(3-fluorophenyl)ethyl]imidazo[1,2-b]pyridazin-6-amine], the IC50 at NTRK1 was less than 5 nM; in assay [1] (HCC78, 72 h) it was less than 20 nM; against NTRK2, less than 10 nM; on NTRK3 it was less than 5 nM.
For `C[C@@H](Nc1ccc2ncc(-c3ccc(OC[C@@H]4CCCN4)cc3)n2n1)c1cccc(F)c1` [Example 24, N-[(1R)-1-(3-Fluorophenyl)ethyl]-3-[4-[[(2S)-pyrrolidin-2-yl]methoxy]phenyl]imidazo[1,2-b]pyridazin-6-amine], the IC50 at NTRK1 is less than 5 nM; in assay [1] (HCC78, 72 h), 20 to 100 nM; on ROS1 [2], less than 1 nM; on NTRK2, less than 10 nM; on ROS1 [3], less than 20 nM; against NTRK3, less than 5 nM.
On to `CNCCOc1ccc(-c2cnc3ccc(N[C@H](C)c4cccc(F)c4)nn23)cc1` [Example 29, N-[(1R)-1-(3-Fluorophenyl)ethyl]-3-[4-[2-(methylamino)ethoxy]phenyl]imidazo[1,2-b]pyridazin-6-amine], for which the IC50 is less than 5 nM against NTRK1; less than 20 nM in assay [1] (HCC78, 72 h); less than 1 nM at ROS1 [2]; less than 10 nM against NTRK2; less than 20 nM on ROS1 [3]; less than 5 nM against NTRK3.
For the compound `C[C@H](N)COc1ccc(-c2cnc3ccc(N[C@H](C)c4cccc(F)c4)nn23)cc1` [Example 41, 3-[4-[(2S)-2-Aminopropoxy]phenyl]-N-[(1R)-1-(3-fluorophenyl)ethyl]imidazo[1,2-b]pyridazin-6-amine], the IC50 was less than 5 nM on NTRK1; less than 20 nM in assay [1] (HCC78, 72 h); less than 10 nM on NTRK2; less than 5 nM on NTRK3.
For the compound `C[C@@H](Oc1ccc2ncc(-c3ccc(N4C[C@@H](N)CC4=O)cc3)n2n1)c1cccc(F)c1` [Example 79, (4S)-4-Amino-1-[4-[6-[(1R)-1-(3-fluorophenyl)ethoxy]imidazo[1,2-b]pyridazin-3-yl]phenyl]pyrrolidin-2-one], the IC50 at NTRK1 was less than 5 nM; in assay [1] (HCC78, 72 h) it was less than 20 nM; on ROS1 [2], less than 1 nM; at NTRK2, less than 10 nM; on NTRK3, less than 5 nM.
On to `CC(Oc1ccc2ncc(-c3ccc(N4C[C@@H](N)CC4=O)cc3)n2n1)c1cc(C#N)n(C)n1` (stereo partly drawn) [Example 116, 5-[1-[3-[4-[(4S)-4-Amino-2-oxopyrrolidin-1-yl]phenyl]imidazo[1,2-b]pyridazin-6-yl]oxyethyl]-2-methylpyrazole-3-carbonitrile], for which the IC50 in assay [1] (HCC78, 72 h) was 100 to 600 nM; on ROS1 [2] it was 10 to 60 nM; against ROS1 [3] it was 100 to 150 nM.
In the case of `CN(Cc1cccnc1)c1ccc2ncc(-c3ccc(N4C[C@@H](N)CC4=O)cc3)n2n1` [Example 117, (4S)-4-Amino-1-[4-[6-[methyl(3-pyridylmethyl)amino]imidazo[1,2-b]pyridazin-3-yl]phenyl]pyrrolidin-2-one], the IC50 in assay [1] (HCC78) lay within 20 to 100 nM; on ROS1 [2], 1 to 10 nM; on ROS1 [3] it was 20 to 100 nM.
For the compound `CN(Cc1cncc(F)c1)c1ccc2ncc(-c3ccc(N4C[C@@H](N)CC4=O)cc3)n2n1` [Example 118, (4S)-4-Amino-1-[4-[6-[(5-fluoro-3-pyridyl)methyl-methylamino]imidazo[1,2-b]pyridazin-3-yl]phenyl]pyrrolidin-2-one], the IC50 in assay [1] (HCC78, 72 h) is less than 20 nM; at ROS1 [2], 1 to 10 nM; at ROS1 [3] it was less than 20 nM.
`CN(Cc1cncc(F)c1)c1ccc2ncc(-c3ccc(N4CC(C)(N)CC4=O)cc3)n2n1` (stereo not shown) [Example 119, 4-Amino-1-[4-[6-[(5-fluoro-3-pyridyl)methyl-methylamino]imidazo[1,2-b]pyridazin-3-yl]phenyl]-4-methylpyrrolidin-2-one]: the IC50 in assay [1] (HCC78, 72 h) was less than 20 nM; at ROS1 [2], 1 to 10 nM; at ROS1 [3], less than 20 nM.
For the compound `CN(Cc1cc(F)cc(F)c1)c1ccc2ncc(-c3ccc(N4C[C@@H](N)CC4=O)cc3)n2n1` [Example 120, (4S)-4-Amino-1-[4-[6-[(3,5-difluorophenyl)methyl-methylamino]imidazo[1,2-b]pyridazin-3-yl]phenyl]pyrrolidin-2-one], the IC50 is less than 20 nM in assay [1] (HCC78, 72 h); less than 1 nM on ROS1 [2]; less than 20 nM at ROS1 [3].
On to `CN(Cc1cccc(C#N)c1)c1ccc2ncc(-c3ccc(N4C[C@@H](N)CC4=O)cc3)n2n1` [Example 121, 3-[[[3-[4-[(4S)-4-Amino-2-oxopyrrolidin-1-yl]phenyl]imidazo[1,2-b]pyridazin-6-yl]-methylamino]methyl]benzonitrile], for which the IC50 fell in the range of 20 to 100 nM in assay [1] (HCC78, 72 h); 1 to 10 nM on ROS1 [2]; 20 to 100 nM at ROS1 [3].
In the case of `CN(Cc1cncc(Cl)c1)c1ccc2ncc(-c3ccc(N4C[C@@H](N)CC4=O)cc3)n2n1` [Example 122, (4S)-4-Amino-1-[4-[6-[(5-chloro-3-pyridyl)methyl-methylamino]imidazo[1,2-b]pyridazin-3-yl]phenyl]pyrrolidin-2-one], the IC50 in assay [1] (HCC78, 72 h) is 20 to 100 nM; on ROS1 [2], 1 to 10 nM; against ROS1 [3] it was 20 to 100 nM.
Turning to `CN(Cc1cncc(Cl)c1)c1ccc2ncc(-c3ccc(N4CC(C)(N)CC4=O)cc3)n2n1` (stereo not shown) [Example 123, 4-Amino-1-[4-[6-[(5-chloro-3-pyridyl)methyl-methylamino]imidazo[1,2-b]pyridazin-3-yl]phenyl]-4-methylpyrrolidin-2-one], the IC50 fell in the range of 20 to 100 nM in assay [1] (HCC78, 72 h); 10 to 60 nM at ROS1 [2]; 100 to 150 nM at ROS1 [3].
The matching figures for `CN(Cc1cncc(F)c1Cl)c1ccc2ncc(-c3ccc(N4C[C@@H](N)CC4=O)cc3)n2n1` [Example 126, (4S)-4-Amino-1-[4-[6-[(4-chloro-5-fluoro-3-pyridyl)methyl-methylamino]imidazo[1,2-b]pyridazin-3-yl]phenyl]pyrrolidin-2-one]: 20 to 100 nM, 1 to 10 nM and 20 to 100 nM.
As to `CN(Cc1cccc(F)c1)c1ccc2ncc(-c3ccc(N4C[C@@H](N)CC4=O)nc3)n2n1` [Example 128, (4S)-4-Amino-1-[5-[6-[(3-fluorophenyl)methyl-methylamino]imidazo[1,2-b]pyridazin-3-yl]-2-pyridyl]pyrrolidin-2-one], the IC50 in assay [1] (HCC78, 72 h) is 20 to 100 nM; on ROS1 [2], less than 1 nM; against ROS1 [3] it was less than 20 nM.
In the same order, the values of `CN(Cc1cc(F)ccc1F)c1ccc2ncc(-c3ccc(N4C[C@@H](N)CC4=O)nc3)n2n1` [Example 129, (4S)-4-Amino-1-[5-[6-[(2,5-difluorophenyl)methyl-methylamino]imidazo[1,2-b]pyridazin-3-yl]-2-pyridyl]pyrrolidin-2-one] are 20 to 100 nM, 1 to 10 nM and 20 to 100 nM.
As for `CN(Cc1cncc(F)c1)c1ccc2ncc(-c3ccc(N4C[C@@H](N)CC4=O)c(C#N)c3)n2n1` [Example 130], the IC50 in assay [1] (HCC78, 72 h) lay in the range of 100 to 600 nM; at ROS1 [2], 10 to 60 nM; against ROS1 [3], 20 to 100 nM.
For `CN(Cc1cccc(F)c1)c1ccc2ncc(-c3ccc(N4C[C@@H](N)CC4=O)c(C#N)c3)n2n1` [Example 131, 2-[(4S)-4-Amino-2-oxopyrrolidin-1-yl]-5-[6-[(3-fluorophenyl)methyl-methylamino]imidazo[1,2-b]pyridazin-3-yl]benzonitrile], the IC50 in assay [1] (HCC78, 72 h) was 20 to 100 nM; at ROS1 [2], 1 to 10 nM; against ROS1 [3], less than 20 nM.
In the same order, the values of `CN(Cc1cccc(F)c1F)c1ccc2ncc(-c3ccc(N4C[C@@H](N)CC4=O)nc3)n2n1` [Example 132, (4S)-4-Amino-1-[5-[6-[(2,3-difluorophenyl)methyl-methylamino]imidazo[1,2-b]pyridazin-3-yl]-2-pyridyl]pyrrolidin-2-one] are 20 to 100 nM, 1 to 10 nM and 20 to 100 nM.
The matching figures for `C[C@@H](Oc1ccc2ncc(-c3ccc(N4C[C@@H](N(C)C)CC4=O)cc3)n2n1)c1cccc(F)c1` [Example 135, (4S)-4-(Dimethylamino)-1-[4-[6-[(1R)-1-(3-fluorophenyl)ethoxy]imidazo[1,2-b]pyridazin-3-yl]phenyl]pyrrolidin-2-one]: 100 to 600 nM, 1 to 10 nM and 20 to 100 nM.

These data come from US9751887B2, “Imidazo[1,2-b]pyridazine derivatives as kinase inhibitors” (Daiichi Sankyo Company, Limited, priority 2012, dated 2017).
